US20250339569A1, “CARBONIC ANHYDRASE IX LIGANDS” (priority 2021, published 2025)
Starred links: 1 amine or outer side, 2 acyl side, 3 side chain; linkers in the order of their positions; H or OH if unused. Positions of bridges follow the written chain, without caps; N, C: chain ends. Non-standard residues stand in square brackets, D forms with d. Residues, ends and D or L forms follow the SMILES beside them. *: point of attachment. NH(CH2)5NHDOTA = O=C(O)CN1CCN(CC(=O)O)CCN(CC(=O)NCCCCCN*)CCN(CC(=O)O)CC1; NH(CH2)3NHDOTA = O=C(O)CN1CCN(CC(=O)O)CCN(CC(=O)NCCCN*)CCN(CC(=O)O)CC1; X3 = O=C(O)CN1CCN(CC(=O)O)CCN(CC(=O)NCCCOCCOCCOCCCN*)CCN(CC(=O)O)CC1; DOTA = O=C(O)CN1CCN(CC(=O)O)CCN(CC(=O)*)CCN(CC(=O)O)CC1; mXylylene = c1cc(C[*:1])cc(C[*:2])c1; X2 = O=C(CN1CCC(N[*:1])CC1)[*:2]; tBuAla = CC(C)(C)C[C@H](N)C(=O)O; Suc = O=C(CCC(=O)[*:2])[*:1]; Ac6c = NC1(C(=O)O)CCCCC1; Nlys = NCCCCNCC(=O)O

Legend:
[1] = target: T1, Recombinant soluble human NEP (Homo sapiens, UniProt P08473); experiment: Proteolytic stability assay against NEP; format: in vitro ADME; settings: 100 ng/mL NEP, 10 μM compound, 37°C
T1 construct: Recombinant soluble human NEP; purchased BioTechne, Wiesbaden, Germany
Procedure: (§1) To assess the stability of compounds against NEP, the compounds were subjected to an in vitro assay based on the protocol described by Edelson et al. (Edelson et al., Pulmonary pharmacology & therapeutics, 2013, 26, 229-238).
(§2) Recombinant soluble human NEP (BioTechne, Wiesbaden, Germany) at a concentration of 100 ng/mL was mixed with the compound (10 μM) and a stable internal standard (10 μM) and incubated at 37° C. After several time points, samples were taken and analyzed with LC-MS.
(§3) The activity of NEP was examined using a commercially available chromogenic substrate of NEP.

[2] = Plasma stability assay, mouse plasma; settings: for % intact compound remaining (incubation time): mouse plasma, 37°C, 4 h; for remaining at 4 h, […]: mouse, plasma (K2EDTA)
[3] = target: T2, CAIX-expressing human HT-29 colorectal cancer cells (Homo sapiens, UniProt Q16790); experiment: FACS binding assay (IC50 determination, competition with tracer 3BP-2776 or 3BP-4149); settings: FACS competition on HT-29 cells, Tracer ID 3BP-2776 (10 nM, biotin-labeled), 4° C., 1 hour; read-out: pIC50 category (activity) (converted)
T2 construct: CAIX-expressing human HT-29 colorectal cancer cells; host or cells: HT-29 human colorectal cancer cells
Procedure, shortened: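 HT-29 cells in FACS buffer (PBS, 1% FCS) at 500.000 cells/ml were exposed to compounds competing with a labelled tracer, with biotinylated compounds detected by 1 μg/mL APC-streptavidin for 30 min on ice. APC/Cy5 median fluorescence was read by flow cytometry and IC50 derived by 4PL fit.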

[4] = target: T3, human carbonic anhydrase IX (hCAIX-Fc) (Homo sapiens, UniProt Q16790); experiment: Surface plasmon resonance assay with hCAIX-Fc; format: binding; settings: 25° C.; for t1/2 category (activity): SPR dissociation half-life, hCAIX-Fc; for Kd: SPR, hCAIX-Fc captured, read-out: pKD category (activity) (converted)
T3 construct: purchased SinoBliological (Sino Biological) 10107-H02H

[5] = target: T4, NEP (Homo sapiens, UniProt P08473); experiment: Proteolytic stability assay against NEP; format: in vitro ADME; settings: human, recombinant soluble human NEP, 100 ng/mL NEP, 10 μM compound, 37°C, read-out: % intact compound remaining after 24 h incubation
T4 construct: Recombinant soluble human NEP; purchased BioTechne, Wiesbaden, Germany
Procedure: as §1, §2, §3

[6] = target: human CAIX (Homo sapiens, UniProt Q16790); experiment: In vitro SPR binding assay of DPI-4452, natLu-DPI-4452 and natGa-DPI-4452 to CAIX (anti-human Fc capture); set-up: purchased SinoBliological (Sino Biological) 10107-H02H; settings: SPR
Procedure: Surface Plasmon Resonance (SPR) studies were performed on a Biacore™ T200 using a ligand capture approach. Basically, anti-human Fc antibodies were immobilized on the surface of a sensor chip and CAIX was captured on the functionalized surface via its Fc Tag.
Then, each compound was injected at increasing concentrations on the captured CAIX in order to measure the in real-time interaction of the compound to its target (i.e. the captured CAIX). The in real-time monitoring of the association and dissociation of the interaction gives access to the interaction kinetics parameters (i.e. the association and dissociation rate constants and the resulting affinity constants).
• A series S CM5 sensor chip was used (Cytiva). • All reagents used for the immobilization procedure were part of the Amine Coupling Kit, type 2 and/or the Human Antibody Capture Kit (Cytiva). The running buffer (HBS-EP+) was prepared by 10-fold dilution of the stock HBS-EP+ 10× solution (Cytiva). • Anti-human Fc antibodies stock solution (0.5 mg/mL in 0.15 M NaCl) was diluted in 10 mM sodium acetate pH 5.0 to a final concentration of 25 μg/mL directly into a plastic vial 7 mm. • Amine coupling reagents were transferred into plastic vials 7 mm as follow: • 95 μL of 0.4 M 1-ethyl-3-(3-dimethylaminopropyl)carbodiimide (EDC). • 95 μL of 0.1 M N-hydroxysuccinimide (NHS). • An empty plastic vial 7 mm was added in the Biacore™ sample rack for mixing. • 150 μL of 1 M ethamolamine-HCl, pH 8.5. • Plastic vials were closed with rubber caps and the sample rack was inserted into the Biacore™ T200 sample compartment. • The Biacore™ T200 Amine Wizard was used to immobilize the anti-Human Fc antibodies on the four flow-cells of a series S CM5 sensor chip simultaneously with defined contact time of 360 seconds and flow-rate of 5 μL/min. • The immobilization procedure was performed at 25° C., following Cytiva's recommendations, as described in Table 23.
This procedure allowed to reach immobilization levels between 6000 and 9000 RU of anti-human Fc antibodies on the sensor chip surface.
• CAIX (Sino Biological, 10107-H02H) stock solution was prepared from lyophilized material reconstituted with deionized water to a concentration of 0.25 μg/mL (3.69 μM), following the supplier recommendations. • CAIX working solution was obtained after dilution of CAIX stock solution with PBS-P+1×, 0.1% DMSO to a final concentration of 200 nM directly in a Biacore™ plastic vial.
• For each measurement, the raw surface plasmon resonance response (RU) was plotted against time (s) as a sensorgram using the Biacore™ T200 Control Software. • Raw data were corrected by double referencing with subtraction of the signal of both the reference flow-cell and the blank cycle. • The association and dissociation rate constants (ka and kd, respectively), as well as the dissociation constant KD and dissociation half-life t1/2 were determined from the corrected sensorgrams by fitting the data to a 1:1 Langmuir binding model with the Biacore™ T200 evaluation software.

T1 sequence (P08473 52-750 limits assumed): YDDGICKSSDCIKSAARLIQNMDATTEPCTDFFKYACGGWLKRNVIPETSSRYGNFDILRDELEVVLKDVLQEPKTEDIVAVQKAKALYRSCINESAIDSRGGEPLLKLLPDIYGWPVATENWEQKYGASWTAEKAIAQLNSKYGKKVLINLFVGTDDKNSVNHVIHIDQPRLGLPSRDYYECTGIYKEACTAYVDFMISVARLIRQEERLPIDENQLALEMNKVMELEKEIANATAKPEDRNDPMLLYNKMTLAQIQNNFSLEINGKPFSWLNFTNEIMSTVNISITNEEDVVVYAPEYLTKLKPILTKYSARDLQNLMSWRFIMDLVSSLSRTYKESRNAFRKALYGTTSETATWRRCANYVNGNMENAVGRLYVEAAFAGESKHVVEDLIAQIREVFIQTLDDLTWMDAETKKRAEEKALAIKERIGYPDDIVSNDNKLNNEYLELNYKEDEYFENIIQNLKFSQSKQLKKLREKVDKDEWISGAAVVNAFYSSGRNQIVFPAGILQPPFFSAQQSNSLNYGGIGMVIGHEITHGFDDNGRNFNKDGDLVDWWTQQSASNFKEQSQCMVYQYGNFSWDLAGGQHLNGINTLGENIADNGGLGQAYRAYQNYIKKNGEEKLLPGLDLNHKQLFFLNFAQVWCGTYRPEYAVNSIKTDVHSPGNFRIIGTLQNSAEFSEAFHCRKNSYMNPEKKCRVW
T4 sequence (P08473 52-750 limits assumed): as above

% intact compound remaining after 24 h incubation [1] [%]	% intact compound remaining (incubation time) [2] [%]	IC50 [3] [µM]	t1/2 category (activity) [4]	remaining at 24 h, 10 μM [5] [%]	remaining at 4 h, […] [2] [%]	Kd [4] [µM]	Structure (SMILES)	affinity of binding to CAIX [6]
–	–	< 0.01	–	> 95	> 95	–	CC(=O)N[C@H](C(=O)N[C@@H](Cc1ccc(O)cc1)C(=O)N[C@H]1CSCc2cccc(c2)CSC[C@@H](C(N)=O)NC(=O)[C@H](C)NC(=O)[C@H](Cc2c[nH]c3ccccc23)NC(=O)[C@H]([C@@H](C)O)NC(=O)C2(CCCCC2)NC(=O)[C@H](Cc2c[nH]c3ccccc23)NC(=O)[C@H](CC(=O)O)NC(=O)[C@H]2CCCN2C(=O)[C@H](CCC(=O)O)NC1=O)C(C)C [3BP-3503] (Ac-VYCE[dP]DW[Ac6c]TWAC-NH2; linker 3-12 via mXylylene)	–
–	–	< 0.01	C (t1/2 between 2.1 and 5.0 minutes)	> 95	95	< 0.01	CC(=O)N[C@H](C(=O)N[C@@H](Cc1ccc(O)cc1)C(=O)N[C@H]1CSCc2cccc(c2)CSC[C@@H](C(N)=O)NC(=O)[C@H](C)NC(=O)[C@H](Cc2c[nH]c3ccccc23)NC(=O)[C@H]([C@@H](C)O)NC(=O)[C@H](CC(C)C)NC(=O)[C@H](Cc2c[nH]c3ccccc23)NC(=O)[C@H](CC(=O)O)NC(=O)CNC(=O)[C@H](CCC(=O)O)NC1=O)C(C)C [3BP-3058] (Ac-VYCEGDWLTWAC-NH2; linker 3-12 via mXylylene)	–
–	–	< 0.01	–	> 95	> 95	–	CC(=O)N[C@H](C(=O)N[C@@H](Cc1ccc(O)cc1)C(=O)N[C@H]1CSCc2cccc(c2)CSC[C@@H](C(N)=O)NC(=O)[C@H](CCC(N)=O)NC(=O)[C@H](Cc2c[nH]c3ccccc23)NC(=O)[C@H]([C@@H](C)O)NC(=O)[C@H](CC(C)C)NC(=O)[C@H](Cc2c[nH]c3ccccc23)NC(=O)[C@H](CC(=O)O)NC(=O)CNC(=O)[C@H](CCC(=O)O)NC1=O)C(C)C [3BP-2837] (Ac-VYCEGDWLTWQC-NH2; linker 3-12 via mXylylene)	–
–	–	< 0.01	–	> 95	> 95	–	CC(=O)N[C@H](C(=O)N[C@@H](Cc1ccc(O)cc1)C(=O)N[C@H]1CSCc2cccc(c2)CSC[C@@H](C(N)=O)NC(=O)[C@H](CO)NC(=O)[C@H](Cc2c[nH]c3ccccc23)NC(=O)[C@H]([C@@H](C)O)NC(=O)[C@H](CC(C)(C)C)NC(=O)[C@H](Cc2c[nH]c3ccccc23)NC(=O)[C@H](CC(=O)O)NC(=O)[C@H]2CCCN2C(=O)[C@H](CCC(=O)O)NC1=O)C(C)C [3BP-3491] (Ac-VYCE[dP]DW[tBuAla]TWSC-NH2; linker 3-12 via mXylylene)	–

The next lines start with the compound.

Structure (SMILES)	% intact compound remaining after 24 h incubation [1] [%]	% intact compound remaining (incubation time) [2] [%]	IC50 [3] [µM]	t1/2 category (activity) [4]	remaining at 24 h, 10 μM [5] [%]	remaining at 4 h, […] [2] [%]	Kd [4] [µM]	affinity of binding to CAIX [6]
CC(=O)N[C@H](C(=O)N[C@@H](Cc1ccc(O)cc1)C(=O)N[C@H]1CSCc2cccc(c2)CSC[C@@H](C(=O)NCCCCCNC(=O)CN2CCN(CC(=O)O)CCN(CC(=O)O)CCN(CC(=O)O)CC2)NC(=O)[C@H](C)NC(=O)[C@H](Cc2c[nH]c3ccccc23)NC(=O)[C@H]([C@@H](C)O)NC(=O)[C@H](CC(C)C)NC(=O)[C@H](Cc2c[nH]c3ccccc23)NC(=O)[C@H](CC(=O)O)NC(=O)[C@H]2CCCN2C(=O)[C@H](CCC(=O)O)NC1=O)C(C)C [3BP-3434, Ac-Val-Tyr-[Cys(3MeBn)-Glu-pro-Asp-Trp-Leu-Thr-Trp-Ala-Cys]-Ape-NH-DOTA] (Ac-VYCE[dP]DWLTWAC-{NH(CH2)5NHDOTA}; linker 3-12 via mXylylene)	>95	>95	< 0.01	–	–	–	–	–
CC(C)C[C@@H]1NC(=O)[C@H](Cc2c[nH]c3ccccc23)NC(=O)[C@H](CC(=O)O)NC(=O)CNC(=O)[C@H](CCC(=O)O)NC(=O)[C@@H](NC(=O)[C@H](Cc2ccc(O)cc2)NC(=O)[C@@H](NC(=O)CCC(=O)NCCCOCCOCCOCCCNC(=O)CN2CCN(CC(=O)O)CCN(CC(=O)O)CCN(CC(=O)O)CC2)C(C)C)CSCc2cccc(c2)CSC[C@@H](C(N)=O)NC(=O)[C@H](CCC(N)=O)NC(=O)[C@H](Cc2c[nH]c3ccccc23)NC(=O)[C@H]([C@@H](C)O)NC1=O [3BP-2959] ({X3-Suc}-VYCEGDWLTWQC-NH2; linker 3-12 via mXylylene)	>95	>95	< 0.01	D (t1/2≤2.0 minutes)	–	–	–	–
CC(=O)N[C@H](C(=O)N[C@@H](Cc1ccc(O)cc1)C(=O)N[C@H]1CSCc2cccc(c2)CSC[C@@H](C(N)=O)NC(=O)[C@H](CCC(=O)NCCCNC(=O)CN2CCN(CC(=O)O)CCN(CC(=O)O)CCN(CC(=O)O)CC2)NC(=O)[C@H](Cc2c[nH]c3ccccc23)NC(=O)[C@H]([C@@H](C)O)NC(=O)[C@H](CC(C)C)NC(=O)[C@H](Cc2c[nH]c3ccccc23)NC(=O)[C@H](CC(=O)O)NC(=O)[C@H]2CCCN2C(=O)[C@H](CCC(=O)O)NC1=O)C(C)C [3BP-3478, Ac-Val-Tyr-[Cys(3MeBn)-Glu-pro-Asp-Trp-Leu-Thr-Trp-Glu(NH-Apr-DOTA)-Cys]-NH2] (Ac-VYCE[dP]DWLTWE(NH(CH2)3NHDOTA)C-NH2; linker 3-12 via mXylylene)	63	>95	< 0.01	A (t1/2>15.0 minutes)	–	–	< 0.01	–
CC(=O)N[C@H](C(=O)N[C@@H](Cc1ccc(O)cc1)C(=O)N[C@H]1CSCc2cccc(c2)CSC[C@@H](C(N)=O)NC(=O)[C@H](C)NC(=O)[C@H](Cc2c[nH]c3ccccc23)NC(=O)[C@H]([C@@H](C)O)NC(=O)[C@H](CC(C)C)NC(=O)[C@H](Cc2c[nH]c3ccccc23)NC(=O)[C@H](CC(=O)O)NC(=O)CN(CCCCNC(=O)CN2CCN(CC(=O)O)CCN(CC(=O)O)CCN(CC(=O)O)CC2)C(=O)[C@H](CCC(=O)O)NC1=O)C(C)C [3BP-3562, Ac-Val-Tyr-[Cys(3MeBn)-Glu-Nlys(DOTA)-Asp-Trp-Leu-Thr-Trp-Ala-Cys]-NH2] (Ac-VYCE[Nlys](DOTA)DWLTWAC-NH2; linker 3-12 via mXylylene)	–	–	< 0.01	–	> 95	89	< 0.01	–
CC(=O)N[C@@H](CCCCNC(=O)CN1CCN(CC(=O)O)CCN(CC(=O)O)CCN(CC(=O)O)CC1)C(=O)N[C@H](C(=O)N[C@@H](Cc1ccc(O)cc1)C(=O)N[C@H]1CSCc2cccc(c2)CSC[C@@H](C(N)=O)NC(=O)[C@H](C)NC(=O)[C@H](Cc2c[nH]c3ccccc23)NC(=O)[C@H]([C@@H](C)O)NC(=O)[C@H](CC(C)C)NC(=O)[C@H](Cc2c[nH]c3ccccc23)NC(=O)[C@H](CC(=O)O)NC(=O)[C@H]2CCCN2C(=O)[C@H](CCC(=O)O)NC1=O)C(C)C [3BP-3427] (Ac-K(DOTA)VYCE[dP]DWLTWAC-NH2; linker 4-13 via mXylylene)	>95	>95	< 0.01	–	–	–	–	–
CC(C)C[C@@H]1NC(=O)[C@H](Cc2c[nH]c3ccccc23)NC(=O)[C@H](CC(=O)O)NC(=O)[C@H]2CCCN2C(=O)[C@H](CCC(=O)O)NC(=O)[C@@H](NC(=O)[C@H](Cc2ccc(O)cc2)NC(=O)[C@@H](NC(=O)CN2CCC(NC(=O)CN3CCN(CC(=O)O)CCN(CC(=O)O)CCN(CC(=O)O)CC3)CC2)C(C)C)CSCc2cccc(c2)CSC[C@@H](C(N)=O)NC(=O)[C@H](C)NC(=O)[C@H](Cc2c[nH]c3ccccc23)NC(=O)[C@H]([C@@H](C)O)NC1=O [3BP-3432] ({DOTA}-[X2]VYCE[dP]DWLTWAC-NH2; linker 4-13 via mXylylene)	>95	98	< 0.01	A (t1/2>15.0 minutes)	–	–	< 0.01	–
CC(C)C[C@@H]1NC(=O)[C@H](Cc2cccc(NC(=O)CCCS(N)(=O)=O)c2)NC(=O)[C@H](CC(=O)O)NC(=O)[C@H]2CCCN2C(=O)[C@H](CCC(=O)O)NC(=O)[C@@H](NC(=O)[C@H](CCC(N)=O)NC(=O)CN2CCN(C(=O)CN3CCN(CC(=O)O)CCN(CC(=O)O)CCN(CC(=O)O)CC3)CC2)CSCc2cccc(c2)CSC[C@@H](C(N)=O)NC(=O)[C@H](CO)NC(=O)[C@H](Cc2c[nH]c3ccccc23)NC(=O)[C@H]([C@@H](C)O)NC1=O [^natGa-DPI-4452, metal not drawn]	–	–	–	–	–	–	–	subnanomolar affinity
CC(C)C[C@@H]1NC(=O)[C@H](Cc2cccc(NC(=O)CCCS(N)(=O)=O)c2)NC(=O)[C@H](CC(=O)O)NC(=O)[C@H]2CCCN2C(=O)[C@H](CCC(=O)O)NC(=O)[C@@H](NC(=O)[C@H](CCC(N)=O)NC(=O)CN2CCN(C(=O)CN3CCN(CC(=O)O)CCN(CC(=O)O)CCN(CC(=O)O)CC3)CC2)CSCc2cccc(c2)CSC[C@@H](C(N)=O)NC(=O)[C@H](CO)NC(=O)[C@H](Cc2c[nH]c3ccccc23)NC(=O)[C@H]([C@@H](C)O)NC1=O [^natLu-DPI-4452, metal not drawn]	–	–	–	–	–	–	–	subnanomolar affinity
